Several values for one entry are separate records, joined by “and”; a condition that tells them apart may be missing. Equal entries are not always repeated.
Assays:
[1] = target: T1, native NS5BΔ21 (Hepatitis C virus genotype 1b, UniProt P26662); test: 3D-Screen-NS5B platform, luciferase reporter, Hela cells, native NS5BΔ21; type: cell-based, HCV genotype 1b; conditions: for inhibition of the luciferase signal (in words): native NS5B platform, Hela cells; for IC50: native NS5BΔ21, 3D-sensor N21C272, 24 hours, read-out: IC50 (luciferase inhibition)
T1 construct: expressed in transfected cells; host or cells: Hela cells, plasmid pVVS478
Procedure: (§1) Transfections were performed for 2 hours in 100 mm dishes in 2 to 4 million cells with 5 to 20 ug of total DNA complexed to jetPEI (PolyPLus transfection, Illkirch, France) with a N/P ratio of 8 The optimal ratio between the plasmids encoding for the luciferase reporter, the target and the selected 3Dsensor was: 3 ug/1 ug/0.5 ug. Cells were dissociated and 25000 cells per well were seeded in 96 well culture treated plates (BD Biosciences, Erembodegem, Belgium).
Compound library's plates were thawed at room temperature. Drugs were handled by a Genesis workstation (Tecan, Lyon, France) and added to the cells at a 5 uM (in 0.5% DMSO) final concentration. Screening was performed by runs of twenty plates. Hits were identified by measurement of the luciferase activity.
(§2) Cell culture supernatant was discarded and 100 ul of Lysis buffer were added to each well. Following […] of vigorous shaking, the lysate was transferred to white opaque 96 well-plates and 100 ul of Luciferin buffer were added. Chemi-luminescence measurement was performed immediately using a Microlumat LB96 luminometer (Berthold, Thoiry, France) with 1 or 10 sec integration time.
Selected hits were synthesized and tested at concentrations varying between 0.01 uM and 100 uM final concentration so as to determine their IC50 on 3 independent experiments.
3D-sensors confirmed in yeast were further investigated in human cells. Among the reasons of choosing Hela cells figured their wide use, easiness of manipulation and capacity of replicating subgenomic HCV replicons (Zhu et al., 2003; Kato et al., 2005).
To validate whether drug's action on our system was stokiometric or not, Hela cells were transiently transfected with three expression plasmids encoding the reporter gene luciferase, the target protein and the conformation sensitive peptide N21C272. After incubation with increasing amounts of reference drugs cVVS-023476 or cVVS-023477, luciferase expression was measured.

[2] = tested on: NS5BΔ21 Indol sensitive mutants; type: cell-based, HCV genotype 1b
Procedure: (§3) Percentages of reporter's inhibition were represented for cells incubated with a specific NS5B inhibitors at increasing concentrations for 24 hours.
as §1, §2
(§4) After incubation for 24 hours with increasing concentrations of cVVS023477 (a compound belonging to the Benzothiadiazin family) or cVVS-023476 (a compound belonging to the Indol N Acetamid family), luciferase expression was measured.

[3] = target: T2, native NS4A-NS3 protease (Hepatitis C virus genotype 1b, UniProt P26662, I1158V/V1140I); test: 3D-Screen NS4A-NS3 protease platform, luciferase reporter, Hela cells, native; type: cell-based, HCV genotype 1b; conditions: native NS4A-NS3 protease platform, Hela cells
T2 construct: the NS3 protease (residues 3-181); expressed in transfected cells; host or cells: Hela cells
Procedure: (§5) Cell culture supernatant was discarded and 100 ul of Lysis buffer were added to each well. Following 10 nm of vigorous shaking, the lysate was transferred to white opaque 96 well-plates and 100 ul of Luciferin buffer were added. Chemi-luminescence measurement was performed immediately using a Microlumat LB96 luminometer (Berthold, Thoiry, France) with 1 or 10 sec integration time.
3D-sensors confirmed in yeast were further investigated in Hela cells.

[4] = tested on: NS5B from genotype 1a or 1b; test: Genotype profiling with the 3D-Screen platform, 3D-sensor N21I4; type: cell-based, HCV genotypes 1a and 1b; conditions: Huh-7 cells, genotype 1a versus 1b, increasing amounts
From the text: Percentages of luciferase inhibition in the presence of the Indol Acetamid NS5B specific ligand cVVS-023476 were represented for N21 I4 peptide targeting NS5B from genotype 1a and 1b.
HCV variants are classified into six genotypes (from 1 to 6) associated with a lower case letter to indicate the subtype (Le Guillou-Guillemette et al., 2007). Since sensitivity to drugs could vary from one HCV genotype to the other (Manns et al., 2007), the investors tested whether the 3D-Screen platform could be able to discriminate such differences which is highly important for preclinical profiling of drug candidates. The inventors thus verified that the 3D-Sensor N21I4 did interact with the polymerase NS5B from genotypes 1a and 1b in Hela and Huh7 cells in an equivalent way.
Huh-7 cells were transiently transfected with three expression plasmids encoding the reporter gene luciferase, the target NS5B from genotype 1a or 1b and the conformation sensitive peptide N21I4. After incubation with increasing amounts of cVVS-023476, luciferase expression was measured.

[5] = target: native NS4A-NS3 full length protein (Hepatitis C virus genotype 1b, UniProt P26662); test: 3D-Screen NS4A-NS3 full length platform, luciferase reporter, Hela cells, native; type: cell-based, HCV genotype 1b; parameters: the GSGS linker and the NS3 protease (residues 3-631); expressed in transfected cells; conditions: native NS4A-NS3 full length platform, Hela cells
Procedure: as §5

[6] = target: T3, NS5BΔ21 (Hepatitis C virus genotype 1b, UniProt P26662); type: cell-based, HCV genotype 1b; conditions: selective medium lacking histidine, leucine and tryptophane, supplemented with ligand, X-Gal overlay
T3 construct: lexA/truncated HCV polymerase lacking the C-terminal 21 amino-acids fusion protein as a bait; expressed in transfected cells; host or cells: Saccharomyces cerevisiae L40, plasmid pVVS468
Procedure: Yeast cells carrying the bait (NS5BΔ21-LexA) were transformed with the prey represented by a library of random peptides (in frame with the viral VP16 activation domain). […] The interacting peptides were then tested in presence of ligands known to induce conformational changes in the bait NS5B.
The naïve yeast was transformed with the pVVS468 (NS5BΔ21 fused to LexA) according to the Lithium Acetate transformation protocol (Schiestl et al, 1989). […] Resulting double transformants were spread on SD Agar medium lacking Tryptophan and Leucine, and incubated for 48 hours at 30° C. Colonies were then scraped and mixed. 1/500th of the suspension obtained was plated on SD Agar medium lacking Tryptophan, Leucine and Histidine to identify HIS3 reporter's activation. After 3 to 5 days of growth, an X-Gal overlay was performed to identify LacZ activation. An X-Gal solution was mixed with an equal volume of 1% agarose cooled to 50° C. then poured slowly over yeast colonies on the surface of agar plates. The individual clones that stained blue were picked up to be grown overnight in deep wells in order to be further analyzed.
Yeast colonies containing a peptide interacting with the bait were grown overnight in 96-well deepwells in trp-leu-liquid medium. They were then spotted using a plugger either on trp-leu-his-or trp-leu-solid medium supplemented with different concentrations of specific or non specific drugs or an equivalent amount of solvent (DMSO). […] Result was confirmed at least 3 times.
Yeast two-hybrid experiments were carried in the L40 strain (ATCC, Molsheim, France) transformed with a lexA/truncated HCV polymerase lacking the C-terminal 21 amino-acids fusion protein as a bait and the VVS001 peptide library as a prey. […] Conformation sensitive peptides or “3D-sensors” were then identified by addition to the selected individual yeast colonies of cVVS-023477 or cVVS-023476, two anti-NS5B drugs known to induce conformational changes in the target polymerase (FIG. 1b).

[7] = tested on: ER; test: Yeast two-hybrid spot test, control clone ER + 3D-sensor No 30-2; type: cell-based
From the text: (a) Isolation of peptides interacting with the NS5BΔ21 in the yeast two-hybrid-system. Yeast cells carrying the bait (NS5BΔ21-LexA) were transformed with the prey represented by a library of random peptides (in frame with the viral VP16 activation domain). Colonies growing on selective medium and staining blue allowed the isolation of individual peptides that would specifically interact with the polymerase. (b) Isolation of conformation sensitive peptides. The interacting peptides were then tested in presence of ligands known to induce conformational changes in the bait NS5B. The “3D-sensors” were thus identified as the ones whose binding to the target polymerase was prevented by known anti-NS5B. The corresponding colonies didn't show any expression of the selection or reporter gene. (c) Characterization of NS5BΔ21 “3D-sensors” in a spot test. Here were represented 2 selected yeast colonies: one carrying the ER and its specific peptide called No 30-2 isolated previously and used as a control, the other carrying the NS5BΔ21 and its specific peptide called N21C272. Both clones were spotted on selective medium lacking histidine, leucine and tryptophane, supplemented or not with polymerase ligands and overlayed with an X-Gal staining The NS5BΔ21+N21C272 clone grew on selective medium in the absence of any NS5B ligand and stained positive for LacZ. […]

[8] = target: T4, NS5BΔ21 M414T mutant (Hepatitis C virus genotype 1b, UniProt P26662, M2833T); test: 3D-Screen-NS5B mutant profiling, Hela cells, M414T; type: cell-based, HCV genotype 1b; conditions: increasing concentrations, 24 hours
T4 construct: expressed in transfected cells; host or cells: Hela cells, plasmid pVVS516
Procedure: as §3, §1, §2, §4

[9] = target: T5, NS5BΔ21 S368A mutant (Hepatitis C virus genotype 1b, UniProt P26662, A2754S/A2757V/K2950R/L2476M/R2673K/S2787A/V2681I); test: 3D-Screen-NS5B mutant profiling, Hela cells, S368A; type: cell-based, HCV genotype 1b; conditions: increasing concentrations, 24 hours
T5 construct: expressed in transfected cells; host or cells: Hela cells, plasmid pVVS799
Procedure: as §3, §1, §2, §4

[10] = target: T6, NS5BΔ21 C316Y mutant (Hepatitis C virus genotype 1b, UniProt P26662, N2735Y); test: 3D-Screen-NS5B mutant profiling, Hela cells, C316Y; type: cell-based, HCV genotype 1b; conditions: increasing concentrations, 24 hours
T6 construct: truncated HCV polymerase lacking the C-terminal 21 amino-acids; expressed in transfected cells; host or cells: Hela cells
Procedure: as §3, §1, §2, §4

[11] = tested on: Hela cells; test: Cytotoxicity assay (XTT) on transfected cells; type: cell-based, human; conditions: 100 μM
Procedure: Viability measurements were performed on cells transfected and seeded in 96 well plates as described above and incubated with drugs for 24 hours. 0.15 mg/ml of XTT solution (Roche Diagnostics, Meylan, France) were added to each well and the plates incubated for 1 hour at 37° C. The optical density of each well's cell culture supernatant was analysed using a spectrophotometer (at 450 nm with deduction of background signal at 690 nm).

[12] = listed as benzothiadiazidic compound

| Compound | inhibition at 1 µM ([1]; HeLa, 1 uM final concentration, 24 hours, 3D-sensor N21C272, versus DMSO) | inhibition at 10 µM ([1]; HeLa, 10 uM final concentration, 24 hours, 3D-sensor N21C272, versus DMSO) | inhibition of the luciferase signal (in words) [1] | IC50 [1] | IC50 [2] | reporter inhibition (in words) [3] | sensitivity of NS5B from two different genotypes to the drug [4] | reporter inhibition (in words) [5] | growth on selective medium and LacZ staining of the NS5BΔ21+N21C272 yeast clone [6] | sensitivity of the control clone (ER + 3D sensor No 30.2 interaction) to ligand [7] | luciferase inhibition ([1]; 1 uM final concentration, 24 hours, 3D-sensor N21C272, versus DMSO) | luciferase inhibition ([1]; 10 uM final concentration, 24 hours, 3D-sensor N21C272, versus DMSO) | reporter inhibition (in words) [8] | reporter inhibition (in words) [8, 12] | reporter inhibition (in words) [9] | reporter inhibition (in words) [10] | reporter inhibition (in words) [10, 12] | toxicity (in words) [11] |
| --- | --- | --- | --- | --- | --- | --- | --- | --- | --- | --- | --- | --- | --- | --- | --- | --- | --- | --- |
| CCN(CC)C1CCN(C(=O)Cn2c(-c3ccc(Cl)cc3)c(C3CCCCC3)c3ccc(C(=O)O)cc32)CC1 [cVVS-023476, 1-{[6-Carboxy-2-(4-chlorophenyl)-3-cyclohexyl-1H-indol-1-yl-]acetyl}-N,N-diethylpiperidin-4-aminium Chloride] | 67% | 82.6% | strong inhibition | 300 nM and 200 to 2000 nM | 200 to 2000 nM | only on the NS5B platform | slightly different sensitivity | only on the NS5B platform |  |  |  |  |  |  |  |  |  |  |
| N-1-cyclobutyl-4-hydroxyquinolon-3-yl-benzothiadiazin [cVVS-023477] |  |  | strongly reduced | 3200 nM |  |  |  |  | didn't show any growth | not affected | 51% | 90% and 83.2%+/−7.5 | the 50% signal inhibition was not reached | didn't show any noticeable reporter inhibition | didn't show any noticeable reporter inhibition | the 50% signal inhibition was not reached | didn't show any noticeable reporter inhibition | not toxic |
